Laboratory results: US11197914B2, “GLP-1R/GCGR dual target agonist polypeptide for treatment of fatty liver diseases, hyperlipemia and arteriosclerosis” (Shenzhen Turier Biotech Co., Ltd., priority 2016, dated 2021)
*1 amine or outer side, *2 acyl side, *3 side chain or, on linkers, in order; H or OH if unused. Primed or numbered codes have the meaning given here. Where no end group is shown, it is not given here. Side-chain parts run from the residue outwards. [ ]: non-standard residue; d: D form. The star is where a group is joined. C18 diacid = O=C(O)CCCCCCCCCCCCCCCCC(=O)*; C16 diacid = O=C(O)CCCCCCCCCCCCCCC(=O)*; γGlu = O=C(O)[C@H](CCC(=O)[*:2])N[*:1]; Stearoyl = CCCCCCCCCCCCCCCCCC(=O)*; Palmitoyl = CCCCCCCCCCCCCCCC(=O)*; PEG2′ = not defined here; Aib = CC(C)(N)C(=O)O

Test system: Hepatic stellate cell strain LX-2
Test: In vitro inhibition of hepatic fibrosis: expression of LX-2 cell activation marker α-SMA (Western Blot, α-SMA/β-actin)
Format: cell-based, human
Details: LX-2 cells; for Relative expression of α-SMA (α-SMA/β-actin, %): 48 hours, negative control = 100%
Procedure: Hepatic stellate cell strain LX-2 was selected to study and observe the effect of different doses of test substances on the expression of LX-2 cell activation marker […]. Hepatic stellate cell LX-2 was laid on 35 mm cell culture plate, cultured with DMEM (high glucose)+10% FBS+1% double-antibody culture medium (Thermo Fisher), placed overnight when the cells grew to 70% convergence at 37° C. and under the condition of 5% CO2, and treated with the above compounds 1-37 (dissolved in PBS) for 48 hours the next day morning to extract cell protein, carry out Western Blot, and take β-actin as internal reference and analyze the expression quantities of α-SMA and β-actin by a gray level of Image J 1.50i. PBS with the same volume as that in experimental group was added in negative control. […] The integrating gray level of α-SMA/β-actin in the negative control group was 100% to analyze the in vitro inhibition activity of hepatic fibrosis of tested polypeptide.

| Substance | Relative expression of α-SMA (α-SMA/β-actin, %) (1 μM) [%] | further results |
| --- | --- | --- |
| His-(D-Ser)-Gln-Gly-Thr-Phe-Thr-Ser-Asp-Lys(PEG2-PEG2-CO(CH2)14CH3)-Ser-Lys-Tyr-Leu-Asp-Aib-Arg-Arg-Ala-Gln-Asp-Phe-Val-Gln-Trp-Leu-Met-Asn-Thr-Gly-Gly-Pro-Ser-Ser-Gly-Ala-Pro-Pro-Pro-Ser-NH2 (H[dS]QGTFTSDK([PEG2′-PEG2′-Palmitoyl])SKYLD[Aib]RRAQDFVQWLMNTGGPSSGAPPPS-NH2) [Compound 31] | 86.89 |  |
| His-(D-Ser)-Gln-Gly-Thr-Phe-Thr-Ser-Asp-Lys(PEG2-PEG2-CO(CH2)16CH3)-Ser-Lys-Tyr-Leu-Asp-Aib-Arg-Arg-Ala-Gln-Asp-Phe-Val-Gln-Trp-Leu-Met-Asn-Thr-Gly-Gly-Pro-Ser-Ser-Gly-Ala-Pro-Pro-Pro-Ser-NH2 (H[dS]QGTFTSDK([PEG2′-PEG2′-Stearoyl])SKYLD[Aib]RRAQDFVQWLMNTGGPSSGAPPPS-NH2) [Compound 32] | 97.14 |  |
| His-(D-Ser)-Gln-Gly-Thr-Phe-Thr-Ser-Asp-Lys(PEG2-PEG2-CO(CH2)16CO2H)-Soer-Lys-Tyr-Leu-Asp-Aib-Arg-Arg-Ala-Gln-Asp-Phe-Val-Gln-Trp-Leu-Met-Asn-Thr-Gly-Gly-Pro-Ser-Ser-Gly-Ala-Pro-Pro-Pro-Ser-NH2 (H[dS]QGTFTSDK([PEG2′-PEG2′-C18 diacid])SKYLD[Aib]RRAQDFVQWLMNTGGPSSGAPPPS-NH2) [Compound 30] | 85.53 |  |
| His-(D-Ser)-Gln-Gly-Thr-Phe-Thr-Ser-Asp-Lys(PEG2-PEG2-γGlu-CO(CH2)14CH3)-Ser-Lys-Tyr-Leu-Asp-Aib-Arg-Arg-Ala-Gln-Asp-Phe-Val-Gln-Trp-Leu-Met-Asn-Thr-Gly-Gly-Pro-Ser-Ser-Gly-Ala-Pro-Pro-Pro-Ser-NH2 (H[dS]QGTFTSDK([PEG2′-PEG2′-γGlu-Palmitoyl])SKYLD[Aib]RRAQDFVQWLMNTGGPSSGAPPPS-NH2) [Compound 4] | 88.50 |  |
| His-(D-Ser)-Gln-Gly-Thr-Phe-Thr-Ser-Asp-Lys(PEG2-PEG2-γGlu-CO(CH2)16CO2H)-Ser-Lys-Tyr-Leu-Asp-Aib-Arg-Arg-Ala-Gln-Asp-Phe-Val-Gln-Trp-Leu-Met-Asn-Thr-Gly-Gly-Pro-Ser-Ser-Gly-Ala-Pro-Pro-Pro-Ser-NH2 (H[dS]QGTFTSDK([PEG2′-PEG2′-γGlu-C18 diacid])SKYLD[Aib]RRAQDFVQWLMNTGGPSSGAPPPS-NH2) [Compound 5] | 67.94 | Inhibition of LX-2 cell activation marker α-SMA (in words, from Table 2): obviously reduce; Effect on expression of α-SMA (in words) (0.1 μM, 1 μM and 5 μM): reduce the expression of α-SMA under all concentrations; Relative expression of α-SMA (α-SMA/β-actin, %) (0.1 μM): 66.04%; Relative expression of α-SMA (α-SMA/β-actin, %) (5 μM): 33.45% |
| His-(D-Ser)-Gln-Gly-Thr-Phe-Thr-Ser-Asp-Tyr-Ser-Lys(PEG2-PEG2-CO(CH2)14CH3)-Lys-Leu-Asp-Aib-Arg-Arg-Ala-Gln-Asp-Phe-Val-Gln-Trp-Leu-Met-Asn-Thr-Gly-Gly-Pro-Ser-Ser-Gly-Ala-Pro-Pro-Pro-Ser-NH2 (H[dS]QGTFTSDYSK([PEG2′-PEG2′-Palmitoyl])KLD[Aib]RRAQDFVQWLMNTGGPSSGAPPPS-NH2) [Compound 9] | 75.86 |  |
| His-(D-Ser)-Gln-Gly-Thr-Phe-Thr-Ser-Asp-Tyr-Ser-Lys(PEG2-PEG2-CO(CH2)16CH3)-Lys-Leu-Asp-Aib-Arg-Arg-Ala-Gln-Asp-Phe-Val-Gln-Trp-Leu-Met-Asn-Thr-Gly-Gly-Pro-Ser-Ser-Gly-Ala-Pro-Pro-Pro-Ser-NH2 (H[dS]QGTFTSDYSK([PEG2′-PEG2′-Stearoyl])KLD[Aib]RRAQDFVQWLMNTGGPSSGAPPPS-NH2) [Compound 3] | 82.25 |  |
| His-(D-Ser)-Gln-Gly-Thr-Phe-Thr-Ser-Asp-Tyr-Ser-Lys(PEG2-PEG2-γGlu-CO(CH2)14CH3)-Lys-Leu-Asp-Aib-Arg-Arg-Ala-Gln-Asp-Phe-Val-Gln-Trp-Leu-Met-Asn-Thr-Gly-Gly-Pro-Ser-Ser-Gly-Ala-Pro-Pro-Pro-Ser-NH2 (H[dS]QGTFTSDYSK([PEG2′-PEG2′-γGlu-Palmitoyl])KLD[Aib]RRAQDFVQWLMNTGGPSSGAPPPS-NH2) [Compound 1] | 75.26 |  |
| His-(D-Ser)-Gln-Gly-Thr-Phe-Thr-Ser-Asp-Tyr-Ser-Lys(PEG2-PEG2-γGlu-CO(CH2)16CO2H)-Lys-Leu-Asp-Aib-Arg-Arg-Ala-Gln-Asp-Phe-Val-Gln-Trp-Leu-Met-Asn-Thr-Gly-Gly-Pro-Ser-Ser-Gly-Ala-Pro-Pro-Pro-Ser-NH2 (H[dS]QGTFTSDYSK([PEG2′-PEG2′-γGlu-C18 diacid])KLD[Aib]RRAQDFVQWLMNTGGPSSGAPPPS-NH2) [Compound 20] | 68.39 | Inhibition of LX-2 cell activation marker α-SMA (in words, from Table 2): obviously reduce |
| His-(D-Ser)-Gln-Gly-Thr-Phe-Thr-Ser-Asp-Tyr-Ser-Lys-Tyr-Leu-Asp-Aib-Lys(PEG2-PEG2-CO(CH2)16CO2H)-Arg-Ala-Gln-Asp-Phe-Val-Gln-Trp-Leu-Met-Asn-Thr-Gly-Gly-Pro-Ser-Ser-Gly-Ala-Pro-Pro-Pro-Ser-NH2 (H[dS]QGTFTSDYSKYLD[Aib]K([PEG2′-PEG2′-C18 diacid])RAQDFVQWLMNTGGPSSGAPPPS-NH2) [Compound 10] | 71.49 |  |
| His-(D-Ser)-Gln-Gly-Thr-Phe-Thr-Ser-Asp-Tyr-Ser-Lys-Tyr-Leu-Asp-Aib-Lys(PEG2-PEG2-γGlu-CO(CH2)14CH3)-Arg-Ala-Gln-Asp-Phe-Val-Gln-Trp-Leu-Met-Asn-Thr-Gly-Gly-Pro-Ser-Ser-Gly-Ala-Pro-Pro-Pro-Ser-NH2 (H[dS]QGTFTSDYSKYLD[Aib]K([PEG2′-PEG2′-γGlu-Palmitoyl])RAQDFVQWLMNTGGPSSGAPPPS-NH2) [Compound 33] | 95.45 |  |
| His-(D-Ser)-Gln-Gly-Thr-Phe-Thr-Ser-Asp-Tyr-Ser-Lys-Tyr-Leu-Asp-Aib-Lys(PEG2-PEG2-γGlu-CO(CH2)16CO2H)-Arg-Ala-Gln-Asp-Phe-Val-Gln-Trp-Leu-Met-Asn-Thr-Gly-Gly-Pro-Ser-Ser-Gly-Ala-Pro-Pro-Pro-Ser-NH2 (H[dS]QGTFTSDYSKYLD[Aib]K([PEG2′-PEG2′-γGlu-C18 diacid])RAQDFVQWLMNTGGPSSGAPPPS-NH2) [Compound 7] | 73.52 |  |
| His-(D-Ser)-Gln-Gly-Thr-Phe-Thr-Ser-Asp-Tyr-Ser-Lys-Tyr-Leu-Asp-Glu-Lys-Ala-Ala-Lys(PEG2-PEG2-γGlu-CO(CH2)14CH3)-Glu-Phe-Ile-Glu-Trp-Leu-Leu-Arg-Ala-NH2 (H[dS]QGTFTSDYSKYLDEKAAK([PEG2′-PEG2′-γGlu-Palmitoyl])EFIEWLLRA-NH2) [Compound 23] | 95.91 |  |
| His-(D-Ser)-Gln-Gly-Thr-Phe-Thr-Ser-Asp-Tyr-Ser-Lys-Tyr-Leu-Asp-Glu-Lys-Ala-Ala-Lys(PEG2-PEG2-γGlu-CO(CH2)14CH3)-Glu-Phe-Ile-Glu-Trp-Leu-Leu-Asn-Gly-Gly-Pro-Ser-Ser-Gly-Ala-Pro-Pro-Pro-Ser-NH2 (H[dS]QGTFTSDYSKYLDEKAAK([PEG2′-PEG2′-γGlu-Palmitoyl])EFIEWLLNGGPSSGAPPPS-NH2) [Compound 29] | 89.36 |  |
| His-(D-Ser)-Gln-Gly-Thr-Phe-Thr-Ser-Asp-Tyr-Ser-Lys-Tyr-Leu-Asp-Glu-Lys-Ala-Ala-Lys(PEG2-PEG2-γGlu-CO(CH2)14CO2H)-Glu-Phe-Ile-Glu-Trp-Leu-Leu-Asn-Gly-Gly-Pro-Ser-Ser-Gly-Ala-Pro-Pro-Pro-Ser-NH2 (H[dS]QGTFTSDYSKYLDEKAAK([PEG2′-PEG2′-γGlu-C16 diacid])EFIEWLLNGGPSSGAPPPS-NH2) [Compound 27] | 92.34 |  |
| His-(D-Ser)-Gln-Gly-Thr-Phe-Thr-Ser-Asp-Tyr-Ser-Lys-Tyr-Leu-Asp-Glu-Lys-Ala-Ala-Lys(PEG2-PEG2-γGlu-CO(CH2)16CH3)-Glu-Phe-Ile-Glu-Trp-Leu-Leu-Arg-Ala-NH2 (H[dS]QGTFTSDYSKYLDEKAAK([PEG2′-PEG2′-γGlu-Stearoyl])EFIEWLLRA-NH2) [Compound 24] | 82.42 |  |
| His-(D-Ser)-Gln-Gly-Thr-Phe-Thr-Ser-Asp-Tyr-Ser-Lys-Tyr-Leu-Asp-Glu-Lys-Ala-Ala-Lys(PEG2-PEG2-γGlu-CO(CH2)16CH3)-Glu-Phe-Ile-Glu-Trp-Leu-Leu-Asn-Gly-Gly-Pro-Ser-Ser-Gly-Ala-Pro-Pro-Pro-Ser-NH2 (H[dS]QGTFTSDYSKYLDEKAAK([PEG2′-PEG2′-γGlu-Stearoyl])EFIEWLLNGGPSSGAPPPS-NH2) [Compound 28] | 87.62 |  |
| His-(D-Ser)-Gln-Gly-Thr-Phe-Thr-Ser-Asp-Tyr-Ser-Lys-Tyr-Leu-Asp-Glu-Lys-Ala-Ala-Lys(PEG2-PEG2-γGlu-CO(CH2)16CO2H)-Glu-Phe-Ile-Glu-Trp-Leu-Leu-Arg-Ala-NH2 (H[dS]QGTFTSDYSKYLDEKAAK([PEG2′-PEG2′-γGlu-C18 diacid])EFIEWLLRA-NH2) [Compound 18] | 75.60 |  |
| His-(D-Ser)-Gln-Gly-Thr-Phe-Thr-Ser-Asp-Tyr-Ser-Lys-Tyr-Leu-Asp-Glu-Lys-Ala-Ala-Lys(PEG2-PEG2-γGlu-CO(CH2)16CO2H)-Glu-Phe-Ile-Glu-Trp-Leu-Leu-Asn-Gly-Gly-Pro-Ser-Ser-Gly-Ala-Pro-Pro-Pro-Ser-NH2 (H[dS]QGTFTSDYSKYLDEKAAK([PEG2′-PEG2′-γGlu-C18 diacid])EFIEWLLNGGPSSGAPPPS-NH2) [Compound 26] | 94.44 |  |
